In US11827596B2, “Thyromimetics” (Autobahn Therapeutics, Inc., priority 2018, dated 2023):

Columns and labels:
TRα = target: T1, TRα (Homo sapiens, UniProt P10827); experiment: Thyroid-hormone reporter-gene assay (Gal4-TR hybrid, luciferase), TRα; assay type: cell-based; conditions: HEK293-derived reporter cells, 24 hr incubation
T1 construct: The firefly luciferase reporter under the Gal4 UAS is a separate reporter gene
T1 sequence (P10827 163-410 isoform P10827-2 limits assumed): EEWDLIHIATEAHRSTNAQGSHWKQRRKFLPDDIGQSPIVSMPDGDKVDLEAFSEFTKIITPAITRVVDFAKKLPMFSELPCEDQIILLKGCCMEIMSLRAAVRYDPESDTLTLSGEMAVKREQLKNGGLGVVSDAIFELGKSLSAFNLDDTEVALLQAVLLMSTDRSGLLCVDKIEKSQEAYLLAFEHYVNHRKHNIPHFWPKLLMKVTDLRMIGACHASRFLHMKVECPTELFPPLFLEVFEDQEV
Procedure: (§1) Reporter cells used in the assays express a TR-receptor hybrid (either TRα or […]) in which the native N-terminal DNA binding domain (DBD) has been replaced with that of the yeast Gal4 DBD. The reporter gene, firefly luciferase, is functionally linked to the Gal4 upstream activation sequence (UAS). Both cell lines were derived from human embryonic kidney (HEK293).
(§2) Step 1: A suspension of reporter cells was prepared in cell recovery medium containing 10% charcoal-stripped FBS, and dispensed into assay plates. The plates were pre-incubated for 6 hours in a cell culture incubator (37° C./5% CO2/85% humidity).
(§3) These Intermediate Stocks were subsequently diluted directly into compound screening medium containing 10% charcoal-stripped FBS to generate “2×-concentration” treatment media (containing 0.2, 0.4 or 0.8% DMSO).
(§4) Step 3: At the end of the pre-incubation period, culture media were discarded from the assay plates, and all wells received 100 μl of compound screening medium. 100 μl of each of the previously prepared “2×-concentration” treatment media were dispensed into duplicate assay wells, thereby achieving the desired final treatment concentrations. The final concentration of DMSO in all assay wells was 0.1, 0.2 or 0.4%. Assay plates were incubated for 24 hr in a cell culture incubator (37° C./5% CO2/85% humidity).
(§5) Step 4: At the 24 h assay endpoint, treatment media were discarded and 100 μl/well of luciferase detection reagent was added. Relative luminometer units (RLUs) were quantified from each assay well.

TRβ = target: T2, TRβ (Homo sapiens, UniProt P10828); experiment: Thyroid-hormone reporter-gene assay (Gal4-TR hybrid, luciferase), TRβ; assay type: cell-based; conditions: for T3-benchmarked selectivity index (T3-SI): EC50 (TRα)*T3-EC50 (TRβ)/EC50 (TRβ)*T3-EC50 (TRα), T3 in the same experiment; for EC50: HEK293-derived reporter cells, 24 hr incubation
T2 construct: expressed in transfected cells; host or cells: HEK293-derived reporter cells
T2 sequence (P10828 217-461 limits assumed): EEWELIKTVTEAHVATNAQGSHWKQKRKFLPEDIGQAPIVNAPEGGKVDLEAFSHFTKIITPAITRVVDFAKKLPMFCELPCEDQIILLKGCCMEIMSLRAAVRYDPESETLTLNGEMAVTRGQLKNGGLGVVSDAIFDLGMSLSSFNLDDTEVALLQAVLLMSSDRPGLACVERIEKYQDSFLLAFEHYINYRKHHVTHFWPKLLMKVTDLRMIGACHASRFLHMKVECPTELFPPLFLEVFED
Procedure: as §1, §2, §3, §4, §5

[1] = Tissue distribution study, brain concentration of parent acid after prodrug dosing; assay type: in vivo, male C57Bl/6 mice; conditions: 1 hr after SC dosing (0.1 mg/kg) of the prodrug; parent acid measured; compared to dichloro-prodrug and Sob-AM2 (FIG. 2)
Procedure: For tissue concentration studies in male C57Bl/6 mice, test compounds are formulated as NMP/solutol/PBS solution, at a concentration of 0.05 mg/mL and dosed at 2 mL/kg with the targeted dose of 0.100 mg/kg via SC injection or oral dosing. […] Tissue homogenates and plasma concentrations of test compounds are determined using LC-MS/MS with lower limits of quantitation of 0.0200 ng/mL or 0.100 ng/g. The pharmacokinetic parameters are determined by non-compartmental methods using WinNonlin.
FIG. 2 depicts brain levels of Compound 2 recorded 1 hr after SC dosing (0.1 mg/kg) of the corresponding prodrug Compound 3.

Row | SMILES | EC50 (TRα) [nM] | T3-benchmarked selectivity index (T3-SI) (TRβ) | EC50 (TRβ) [nM] | functional EC50 (TRβ) (TRβ; TR screening) | brain concentration of the parent acid [1]
1 | CNC(=O)COc1cc(C)c(Cc2ccc(O)c(C(C)C)c2)c(Cl)c1 [Compound 3, 2-(3-chloro-4-(4-hydroxy-3-isopropylbenzyl)-5-methylphenoxy)-N-methylacetamide] | – | – | – | – | dramatic increase in brain concentration of the parent acid
2 | C=C(C)c1cc(OCC(=O)O)cc(C)c1Cc1ccc(O)c(C(C)C)c1 [Compound 20, 2-(4-(4-hydroxy-3-isopropylbenzyl)-3-methyl-5-(prop-1-en-2-yl)phenoxy)acetic acid] | 100 to 1000 | ++ (3×<T3-SI≤30×) | 10 to 100 | – | –
3 | C/C=C/c1cc(OCC(=O)O)cc(C)c1Cc1ccc(O)c(C(C)C)c1 [Compound 23, (E)-2-(4-(4-hydroxy-3-isopropylbenzyl)-3-methyl-5-(prop-1-enyl)phenoxy)acetic acid] | > 1000 | ++ (3×<T3-SI≤30×) | 100 to 1000 | – | –
4 | CCCc1cc(OCC(=O)O)cc(C)c1Cc1ccc(O)c(C(C)C)c1 [Compound 25, 2-(4-(4-hydroxy-3-isopropylbenzyl)-3-methyl-5-propylphenoxy)acetic acid] | 100 to 1000 | ++ (3×<T3-SI≤30×) | 100 to 1000 | – | –
5 | Cc1cc(OCC(=O)O)cc(C2CC2)c1Cc1ccc(O)c(C(C)C)c1 [Compound 27, 2-(3-cyclopropyl-4-(4-hydroxy-3-isopropylbenzyl)-5-methylphenoxy)acetic acid] | > 1000 | ++ (3×<T3-SI≤30×) | 100 to 1000 | – | –
6 | C=C(C)c1cc(OCC(=O)O)cc(Cl)c1Cc1ccc(O)c(C(C)C)c1 [Compound 30, 2-(3-chloro-4-(4-hydroxy-3-isopropylbenzyl)-5-(prop-1-en-2-yl)phenoxy)acetic acid] | 100 to 1000 | ++ (3×<T3-SI≤30×) | 10 to 100 | – | –

Further lines, with some results ahead:

Row | EC50 (TRα) [nM] | T3-benchmarked selectivity index (T3-SI) (TRβ) | EC50 (TRβ) [nM] | functional EC50 (TRβ) (TRβ; TR screening) | SMILES | brain concentration of the parent acid [1]
7 | 100 to 1000 | ++ (3×<T3-SI≤30×) | 100 to 1000 | – | Cc1cc(OCC(=O)O)cc(Cl)c1Cc1ccc(O)c(C(C)C)c1 [Compound 2, 2-(3-chloro-4-(4-hydroxy-3-isopropylbenzyl)-5-methylphenoxy)acetic acid] | –
8 | 10 to 100 | ++ (3×<T3-SI≤30×) | 10 to 100 | equipotent with the di-bromo analog | Cc1cc(OCC(=O)O)cc(Br)c1Cc1ccc(O)c(C(C)C)c1 [Compound 5, 2-(3-bromo-4-(4-hydroxy-3-isopropylbenzyl)-5-methylphenoxy)acetic acid] | –
9 | 100 to 1000 | ++ (3×<T3-SI≤30×) | 10 to 100 | – | CCc1cc(OCC(=O)O)cc(Cl)c1Cc1ccc(O)c(C(C)C)c1 [Compound 8, 2-(3-chloro-5-ethyl-4-(4-hydroxy-3-isopropylbenzyl)phenoxy)acetic acid] | –
10 | 100 to 1000 | ++ (3×<T3-SI≤30×) | 10 to 100 | – | Cc1cc(OCC(=O)O)cc(C(F)(F)F)c1Cc1ccc(O)c(C(C)C)c1 [Compound 11, 2-(4-(4-hydroxy-3-isopropylbenzyl)-3-methyl-5-(trifluoromethyl)phenoxy)acetic acid] | –
11 | 100 to 1000 | ++ (3×<T3-SI≤30×) | 10 to 100 | – | CCc1cc(OCC(=O)O)cc(C)c1Cc1ccc(O)c(C(C)C)c1 [Compound 16, 2-(3-ethyl-4-(4-hydroxy-3-isopropylbenzyl)-5-methylphenoxy)acetic acid] | –
12 | 10 to 100 | ++ (3×<T3-SI≤30×) | 10 to 100 | – | CC(C)c1cc(Cc2c(Cl)cc(OCC(=O)O)cc2C(F)(F)F)ccc1O [Compound 18, 2-(3-chloro-4-(4-hydroxy-3-isopropylbenzyl)-5-(trifluoromethyl)phenoxy)acetic acid] | –
13 | 10 to 100 | ++ (3×<T3-SI≤30×) | 10 to 100 | – | Cc1cc(OCC(=O)O)cc(C(C)C)c1Cc1ccc(O)c(C(C)C)c1 [Compound 21, 2-(4-(4-hydroxy-3-isopropylbenzyl)-3-isopropyl-5-methylphenoxy)acetic acid] | –
14 | 10 to 100 | ++ (3×<T3-SI≤30×) | < 10 | – | CC(C)c1cc(Cc2c(Cl)cc(OCC(=O)O)cc2C(C)C)ccc1O [Compound 31, 2-(3-chloro-4-(4-hydroxy-3-isopropylbenzyl)-5-isopropylphenoxy)acetic acid] | –
